{"source": "patent EP0454060B1", "about": "“3-(Mercaptoalkyl)-quinazoline-2,4(1H,3H)-diones, processes for their preparation, and pharmaceutical compositions” (priority 1990, dated 1991)", "key": {"[1]": {"system": "Kontaktüberempfindlichkeit vom verzögerten Typ (Effektor-T-Lymphozyten-Aktivität)", "assay": "Percutaneous test for contact hypersensitivity after DNFB immunisation", "assay_type": "in vivo, Meerschweinchen (Albino-Koloniezucht)", "conditions": "Sensibilisierungsgrad versus control group; 2 mg/kg daily peroral, day +1 to +6; screening values; from 120 stimulatory, below 80 suppressive", "text": "Der Nachweis einer immunregulatorischen Wirksamkeit wurde am Meerschweinchen (Albino-Koloniezucht) und u. a. mit Hilfe folgender Techniken geführt: • Perkutaner Test zum Nachweis einer Kontaktüberempfindlichkeit vom verzögerten Typ (Effektor-T-Lymphozyten-Aktivität), • Takatsy-Test zum Nachweis DNP-spezifischer Serumantikörper (humorale Immunantwort).\nDer Nachweis der antiviralen Wirksamkeit erfolgte in vitro an Hühnerembryonalzellen mit Vertretern verschiedener Virusgruppen. 1. Untersuchungen zur immunregulatorischen Wirksamkeit 1.1 Perkutaner Test zum Nachweis einer Kontaktüberempfindlichkeit Die epikutane Applikation von Dinitrofluorbenzol (DNFB) führt beim Meerschweinchen und bei der Maus zur Entwicklung einer verzögerten Überempfindlichkeit, eines Immunstatus, der an die klonale Vermehrung TNP-spezifischer T-Lymphozyten (TDTH-Ly) gebunden ist. Erfolgt nach einer Latenzperiode von mindestens 5 Tagen eine erneute DNFB-Applikation, kommt es zu einer Freisetzung von Lymphokinen durch Reaktion mit den TDTH-Ly dieses Hautbereiches und dadurch zu einer lokal begrenzten Entzündungsreaktion. Sieben Tage nach der Immunisierung mit 1 %igem DNFB wurden die Flanken der Versuchstiere enthaart und durch Aufbringen je eines Tropfens 0,5 %, 0,1 %, 0,05 %, 0,025 % und 0,01 %iger DNFB-Lösung getestet. Die noch positive Konzentration ist dem Grad der Sensibilisierung umgekehrt proportional. Die Testergebnisse ergeben sich aus Stärke und Anzahl der positiven Hautreaktionen, der Stimulierungsindex (SI) aus dem Vergleich der Test- und Kontrolltiere. Die Substanzbehandlung erfolgte peroral. Mittels Schlundsonde wurde eine tägliche Dosis von 2 mg/kg Körpermasse als Suspension in Wasser gegeben. Behandlungsdauer: 1 Tag + 1 (ein Tag nach der Immunisierung) bis +6. Die Kontrolltiere erhielten nur die eingesetzte Lactose. 1.2 Takatsy-Test Nach Immunisierung mit Dinitrofluorbenzol (DNFB) kommt es beim Meerschweinchen auch zur Bildung DNP-spezifischer humoraler Antikörper, die bevorzugt der IgG1-Substanzklasse angehören. 14 Tage nach primärer epikutaner Applikation von DNFB wurde den Versuchstieren Blut durch Herzpunktion entnommen. Die Bestimmung der Antikörperkonzentration erfolgte nach einer von Takatsy beschriebenen Methode (Takatsy, G.: A new method for the preparation of serial dilutions in a quick and accurate way. Kiserletes Orvostudomany 2 (1950) 263 - 396). Als Indikatorzellen wurden TNP-beladene Schaferythrozyten verwendet (Kopplung nach Rittenberg und Pratt; Rittenberg, M. B. and Pratt, K. L.: Antitrinitrophenyl (TNP) plaque assay. Primary response of BALB/c mice to soluble and particulate immunogen. Proc. Soc. exp. Biol. Med., 132 (1969) 575 - 579). 1.3 Ergebnisse Sensibilisierungsgrad (%) und Serumantikörperkonzentration (AK-Titer-Differenz) gegenüber der jeweiligen Kontrollgruppe (Screening-Werte)\nAus den Werten wird deutlich, daß die Verbindungen der allgemeinen Formel I einen gut nachweisbaren Effekt auf die Effektor-T-Lymphozyten-abhängige verzögerte Uberempfindlichkeit haben. Kontaktdermatitis-Werte ab 120 (≙ 20 % Steigerung gegenüber der Kontrolle) bzw. unter 80 werden als Nachweis eines stimulatorischen bzw. suppressorischen Effektes angesehen. Antikörpertiter-Differenzen von >+1 bzw. <-1 verdeutlichen den stimulatorischen bzw. suppressorischen Effekt der Substanzen auf die humorale Immunantwort. 2. Untersuchungen zur immunstimulierenden Wirkung • 2.1 Plaque-Test zum Nachweis von SE-spezifischen IgM- und IgG-PBZ Zur Prüfung immunstimulierender Effekte wurde u. a. auch der Einfluß von Verbindungen der allgemeinen Formel I auf die humorale Immunantwort an Mäusen des Inzuchtstammes CBA und mittels Hämolyse-Plaque-Test (HPT) untersucht. Diese Technik erlaubt die quantitative und getrennte Erfassung IgM- und IgG-Antikörper produzierender Zellen (= Plaque bildende Zellen; PBZ). […]"}, "[2]": {"system": "Influenza A/WSN", "assay": "One-step replication cycle on permanent human kidney cell line"}, "[3]": {"system": "Influenza A/WSN", "assay": "Plaque reduction test on primary HEZ", "conditions": "mean of two experiments"}, "[4]": {"system": "Vesicular-stomatitis Indiana", "assay": "One-step replication cycle on chick embryo cells", "assay_type": "cell-based", "conditions": "Beispielreihe 2, HEZ"}, "[5]": {"system": "Human-Fibroblasten (2 Tage alt)", "assay": "Cell tolerance, microscopic reading", "assay_type": "cell-based", "set-up": "key: 0̸: Am 5. Tag der mikroskopischen Ablesung keine morphologischen Veränderungen der Zellen.; ++++: Komplette Veränderungen der Zellschicht in Form von Abrundung, Granulierung und Ablösen der Zellen von der Glaswand.; +++: Analoge Veränderungen bei 3/4 des Zellrasens.; ++: Analoge Veränderungen bei 1/2 des Zellrasens.; +: Analoge Veränderungen bei 1/4 des Zellrasens", "conditions": "HFi, reading day 5", "text": "(§1) 0̸ = Am 5. Tag der mikroskopischen Ablesung keine morphologischen Veränderungen der Zellen. ++++ = Komplette Veränderungen der Zellschicht in Form von Abrundung, Granulierung und Ablösen der Zellen von der Glaswand. +++ = Analoge Veränderungen bei 3/4 des Zellrasens. ++ = Analoge Veränderungen bei 1/2 des Zellrasens. + = Analoge Veränderungen bei 1/4 des Zellrasens."}, "[6]": {"system": "primären Hühnerembryonalzellen (2 Tage alt)", "assay": "Cell tolerance, microscopic reading", "assay_type": "cell-based, Hühner", "set-up": "key: 0̸: Am 5. Tag der mikroskopischen Ablesung keine morphologischen Veränderungen der Zellen.; ++++: Komplette Veränderungen der Zellschicht in Form von Abrundung, Granulierung und Ablösen der Zellen von der Glaswand.; +++: Analoge Veränderungen bei 3/4 des Zellrasens.; ++: Analoge Veränderungen bei 1/2 des Zellrasens.; +: Analoge Veränderungen bei 1/4 des Zellrasens", "conditions": "HEZ, reading day 5", "text": "as §1"}, "[7]": {"system": "Vaccinia Lister", "assay": "Plaque reduction test on primary HEZ", "conditions": "mean of two experiments"}, "[8]": {"system": "Herpes simplex Typ 1", "assay": "One-step replication cycle on chick embryo cells", "assay_type": "cell-based", "conditions": "Beispielreihe 2, HEZ"}, "[9]": {"conditions": "125 µmol/l, mean of three experiments"}, "[10]": {"conditions": "125 µmol/l, n.s. = nicht signifikant"}, "[11]": {"conditions": "250 µmol/l, mean of three experiments"}, "[12]": {"conditions": "125 µmol/l in maintenance medium"}, "[13]": {"conditions": "250 µmol/l in maintenance medium"}, "[14]": {"conditions": "500 µmol/l in maintenance medium"}, "[15]": {"conditions": "1000 µmol/l in maintenance medium"}, "[16]": {"conditions": "62,5 µmol/l in maintenance medium"}}}
{"smiles": "COc1cc2[nH]c(=O)n(CCCS)c(=O)c2cc1OC", "note": "[Beispiel 2, 3-(3-Mercaptoprop-1-yl)-6,7-dimethoxychinazolin-2,4(1H,3H)-dion]", "values": [{"measurement": "Kontaktdermatitis (Kontrolle: 100) 24-Stunden-Reaktion", "setting": "[1]", "result": 180, "unit": "%"}, {"measurement": "% Hemmung", "setting": "[2]; Beispielreihe 5a, 125 µmol/l", "result": "99,0%"}, {"measurement": "Senkung des Virusertrages im Vergleich zur unbehandelten Kontrolle", "setting": "[2]; Beispielreihe 5a, 125 µmol/l", "result": "2,0 log10 TCID50/0,2 ml"}, {"measurement": "% Hemmung", "setting": "[2]; Beispielreihe 5a, 250 µmol/l", "result": "99,99%"}, {"measurement": "Senkung des Virusertrages im Vergleich zur unbehandelten Kontrolle", "setting": "[2]; Beispielreihe 5a, 250 µmol/l", "result": "6,17 log10 TCID50/0,2 ml"}, {"measurement": "Senkung des Virusertrages im Vergleich zur unbehandelten Kontrolle", "setting": "[2]; Beispielreihe 5a, 31,25 µmol/l", "result": "0 log10 TCID50/0,2 ml"}, {"measurement": "Senkung des Virusertrages im Vergleich zur unbehandelten Kontrolle", "setting": "[2]; Beispielreihe 5a, 62,5 µmol/l", "result": "0,5 log10 TCID50/0,2 ml"}, {"measurement": "% Hemmung", "setting": "[2]; Beispielreihe 5a, 62,5 µmol/l, n. s. = nicht signifikant", "result": "n. s."}]}
{"smiles": "O=c1[nH]c2ccccc2c(=O)n1CCS", "note": "[Beispiel 1, 3-(2-Mercaptoethyl)-chinazolin-2,4(1H,3H)-dion]", "values": [{"measurement": "Plaquereduktion in % zur Viruskontrolle auf primären HEZ", "setting": "[3]; 125 µmol/l", "result": 98, "unit": "%"}, {"measurement": "Plaquereduktion in % zur Viruskontrolle auf primären HEZ", "setting": "[3]; 250 µmol/l", "result": 100, "unit": "%"}, {"measurement": "Plaquereduktion in % zur Viruskontrolle auf primären HEZ", "setting": "[3]; 31,25 µmol/l, 31.25 µM", "result": 85, "unit": "%"}, {"measurement": "Plaquereduktion in % zur Viruskontrolle auf primären HEZ", "setting": "[3]; 62,5 µmol/l, 62.5 µM", "result": 92, "unit": "%"}, {"measurement": "Senkung des Virusertrages im Vergleich zur unbehandelten Kontrolle", "setting": "[4]; [9]", "result": "0,5 log10 TCID50/0,2 ml"}, {"measurement": "% Hemmung", "setting": "[4]; [10]", "result": "n. s."}, {"measurement": "% Hemmung", "setting": "[4]; [11]", "result": "99,9%"}, {"measurement": "Senkung des Virusertrages im Vergleich zur unbehandelten Kontrolle", "setting": "[4]; [11]", "result": "3,0 log10 TCID50/0,2 ml"}, {"measurement": "Zellverträglichkeit", "setting": "[5]; [12]", "result": "0̸"}, {"measurement": "Zellverträglichkeit", "setting": "[5]; [13]", "result": "0̸"}, {"measurement": "Zellverträglichkeit", "setting": "[5]; [14]", "result": "0̸"}, {"measurement": "Zellverträglichkeit", "setting": "[5]; [15]", "result": "++"}, {"measurement": "Zellverträglichkeit", "setting": "[5]; [16]", "result": "0̸"}, {"measurement": "Zellverträglichkeit", "setting": "[6]; [12]", "result": "0̸"}, {"measurement": "Zellverträglichkeit", "setting": "[6]; [13]", "result": "0̸"}, {"measurement": "Zellverträglichkeit", "setting": "[6]; [14]", "result": "+"}, {"measurement": "Zellverträglichkeit", "setting": "[6]; [15]", "result": "+++"}, {"measurement": "Zellverträglichkeit", "setting": "[6]; [16]", "result": "0̸"}, {"measurement": "Plaquereduktion in % zur Viruskontrolle auf primären HEZ", "setting": "[7]; 125 µmol/l", "result": 96, "unit": "%"}, {"measurement": "Plaquereduktion in % zur Viruskontrolle auf primären HEZ", "setting": "[7]; 250 µmol/l", "result": 100, "unit": "%"}, {"measurement": "Plaquereduktion in % zur Viruskontrolle auf primären HEZ", "setting": "[7]; 31,25 µmol/l, 31.25 µM", "result": 87, "unit": "%"}, {"measurement": "Plaquereduktion in % zur Viruskontrolle auf primären HEZ", "setting": "[7]; 62,5 µmol/l, 62.5 µM", "result": 92, "unit": "%"}, {"measurement": "Senkung des Virusertrages im Vergleich zur unbehandelten Kontrolle", "setting": "[8]; [9]", "result": "0,33 log10 TCID50/0,2 ml"}, {"measurement": "% Hemmung", "setting": "[8]; [10]", "result": "n. s."}, {"measurement": "% Hemmung", "setting": "[8]; [11]", "result": 99, "unit": "%"}, {"measurement": "Senkung des Virusertrages im Vergleich zur unbehandelten Kontrolle", "setting": "[8]; [11]", "result": "1,0 log10 TCID50/0,2 ml"}]}
